In series [1] the test system is TNF-α, IL-6 and IFN-γ in the retina. The series can be described thus: Retinal cytokine mRNA (real-time PCR) and protein (ELISA) in EAU mice. Format: in vivo, C57BL/6 (WT) mice.
Series [2] relates to adherent leukocytes in retinal vessels. Briefly: Leukocyte adhesion to retinal vessels (Concanavalin A lectin staining). Format: in vivo, Lewis rats. As for the experimental part: Male Lewis rats ranging from 6-8 weeks old (Charles River, Wilmington, Mass.) were used for these studies. To study the effects of AICAR pretreatment, AICAR and PBS (for placebo treatment) were delivered via intraperitoneal injection of AICAR (50 mg/kg or 100 mg/kg body weight; Sigma) diluted in 150 μl PBS or equal volume of PBS at 6 hours before and at the same time as LPS injection. Four experimental groups of rats were compared: (1) Normal: no treatment (2) AICAR: normal rats treated with AICAR 6 hours before examination; (3) LPS: EIU rats treated with PBS; (4) LPS+AICAR: EIU rats treated with AICAR. Two additional groups of rats were used to study the effects of AICAR (50 mg/kg) given either at the same time as LPS injection or at 6 hours after LPS injection. Inflammation in the posterior segment of the eye is seen in EIU with the adherence of recruited leukocytes to the retinal vascular endothelium (Koizumi et al. (2003) INVEST. OPHTHALMOL. VIS. SCI. 44:2184-2191). Leukocyte adhesion to the retinal vessels was evaluated at 24 hours after EIU induction by using the Concanavalin A (Con A) lectin staining technique (Smith et al. (1994) INVEST. OPHTHALMOL. VIS. SCI. 35:101-111). […] The flatmounts were imaged using an epifluorescence microscope (DM RXA; Leica) and the total number of Con A-stained adherent leukocytes per retina was counted.

The subject of series [3] is experimental autoimmune uveitis (EAU). Briefly: Clinical scoring of EAU by funduscopic examination. It counts as in vivo, C57BL/6 (WT) mice.
Series [4] relates to CD4+CD25+Foxp3+ Treg population. Briefly: Treg population in LN cells of EAU mice (flow cytometry). It counts as in vivo, C57BL/6 (WT) mice. As to conditions: control vs AICAR-treated mice; 21 days after immunization. From the text:
The effect of AICAR on the regulatory T (Treg) cell population in the EAU mice was also directly assessed. Specifically, LN cells from five mice were harvested at 21 days after immunization and stained with a mouse regulatory T cell staining kit #2 (eBioscience) according to manufacturer's instructions. CD4^+CD25^+Foxp3^+ Treg populations were subsequently detected by flow cytometry.
On the technique in general: In flow cytometry, cells or beads pass a laser one at a time.

For series [5], the system named is endotoxin-induced uveitis (EIU). The series can be described thus: Clinical scoring of EIU by slit lamp examination. Format: in vivo, Lewis rats. As to conditions: for EIU clinical inflammation score: 24 h after LPS, scale 0-4, mean±SD, PBS-treated EIU 3.6±0.7; for EIU clinical score: no suppression vs controls. The text has this: Endotoxin-induced uveitis (EIU) is a rodent model of human uveitis, induced by a single systemic injection of endotoxin or lipopolysaccharide (LPS) (Rosenbaum et al., (1980) NATURE 286:611-613). Injected animals develop acute bilateral anterior inflammation, characterized by a breakdown of the blood-ocular barrier and accumulation of inflammatory cells. EIU has been used to investigate the pathogenesis of uveitis and to evaluate the therapeutic effect of several drugs (Herbort et al. (1989) EXP. EYE RES. 48:693-705; Avunduk et al. (2004) EXP. EYE RES. 79:357-365; Chang et al. (2006) BR. J. OPHTHALMOL. 90:103-108; Wakefield et al. (2010) BR. J. OPHTHALMOL. 94:271-274). The effect of AICAR on ocular inflammation associated with uveitis was assessed using the EIU rat model. Male Lewis rats ranging from 6-8 weeks old (Charles River, Wilmington, Mass.) were used for these studies. To study the effects of AICAR pretreatment, AICAR and PBS (for placebo treatment) were delivered via intraperitoneal injection of AICAR (50 mg/kg or 100 mg/kg body weight; Sigma) diluted in 150 μl PBS or equal volume of PBS at 6 hours before and at the same time as LPS injection. Four experimental groups of rats were compared: (1) Normal: no treatment (2) AICAR: normal rats treated with AICAR 6 hours before examination; (3) LPS: EIU rats treated with PBS; (4) LPS+AICAR: EIU rats treated with AICAR. Two additional groups of rats were used to study the effects of AICAR (50 mg/kg) given either at the same time as LPS injection or at 6 hours after LPS injection. Clinical scoring of EIU was performed as previously described (Pouvreau et al. (1998) J. NEUROIMMUNOL. 86:171-181). Slit lamp examination was conducted 24 hours after LPS injection in a masked fashion. The severity of EIU was graded from 0 to 4 by a masked investigator, using the following scale: 0=no inflammatory reaction; 1=discrete inflammation of the iris and conjunctival vessels; 2=dilation of the iris and conjunctival vessels with moderate flare in the anterior chamber; 3=hyperemia in iris associated with Tyndall effect in the anterior chamber; and 4=same clinical signs as 3 plus the presence of fibrin or synechiae.

Where [6] appears, read: AICAR 200 mg/kg treated EAU mice vs control EAU mice.

In the case of `NC(=O)c1ncn([C@@H]2O[C@H](CO)[C@@H](O)[C@H]2O)c1N` [AICAR, 5-aminoimidazole-4-carboxamide-1-β-d-ribofuranoside], the “IFN-γ mRNA in retina” value in series [1] (setting [6]) is given as “significantly reduced”. In series [1] (setting [6]), the “IL-6 mRNA in retina” value is listed as “significantly reduced”. Further, the “TNF-α mRNA in retina” value in series [1] (setting [6]) is reported as “significantly reduced”. Moreover, the “IL-6 protein level in retina” value in series [1] (AICAR 200 mg/kg treated EAU mice, 21 days after immunization, ELISA) is on record as “suppressed”. For the same molecule, the “Number of Con A-stained adherent leukocytes per retina” value in series [2] (AICAR 50 mg/kg pretreatment, 24 h after LPS, n=11, EIU rats 1163±244) was 576±249 cells. Also, the “Adherent leukocytes in AICAR-only-treated rats” value in series [2] (normal rats, AICAR only, n=6) is “few adherent leukocytes”. Further, the “EAU mean clinical score” value in series [3] (AICAR 200 mg/kg i.p. daily day 0 to 21, day 21, scale 0-4, n=15, control 2.6±0.70) turned out to be 1.32±0.95. For the same molecule, the “Clinical inflammation on fundus examination” value in series [3] (AICAR 100 or 200 mg/kg daily, dose-dependent manner) is listed as “suppressed”. Besides, the “EAU mean clinical score, effector phase treatment” value in series [3] (AICAR administered from day 8 to 21 after immunization, n=8, controls 2.44±0.56) was determined as 1.50±0.86. Moreover, the “CD4+CD25+Foxp3+ Treg population” value in series [4] is “not significantly different”. Further, the “EIU clinical inflammation score” value in series [5] (AICAR 50 mg/kg i.p. 6 h before and at same time as LPS, n=15) came to 2.2±0.75; in series [5] (AICAR 100 mg/kg i.p. 6 h before and at same time as LPS, n=12) it was 2.7±1.4. Moreover, in series [5] (AICAR-pretreated EIU animals vs PBS-treated EIU rats), the “Fibrin formation and posterior synechiae” value is reported as “rarely seen”. Further, in series [5] (age-matched normal rats, no LPS, n=6), the “Inflammation in normal rats that received AICAR alone” value was “No inflammation was detected”. The EIU clinical score in series [5] (single dose AICAR 50 mg/kg at 6 hours after LPS injection, n=6) stood at 3.9±0.2; in series [5] (single dose AICAR 50 mg/kg at the time of LPS injection, n=6), 3.7±0.5.

(Values after patent publication US10842806B2, “Methods for treating ocular inflammatory disorders” (Massachusetts Eye and Ear Infirmary, priority 2011, dated 2020).)
